{"source": "paper PMC12376128", "about": "“In vitro and In Vivo Drug Metabolism Analysis of BPI-460372 - A Covalent TEAD1/3/4 Inhibitor” (Current Drug Metabolism, 2025)", "key": {"CYP2D6": {"target": "CYP2D6 (Homo sapiens, UniProt P10635)", "sequence (P10635 whole entry)": "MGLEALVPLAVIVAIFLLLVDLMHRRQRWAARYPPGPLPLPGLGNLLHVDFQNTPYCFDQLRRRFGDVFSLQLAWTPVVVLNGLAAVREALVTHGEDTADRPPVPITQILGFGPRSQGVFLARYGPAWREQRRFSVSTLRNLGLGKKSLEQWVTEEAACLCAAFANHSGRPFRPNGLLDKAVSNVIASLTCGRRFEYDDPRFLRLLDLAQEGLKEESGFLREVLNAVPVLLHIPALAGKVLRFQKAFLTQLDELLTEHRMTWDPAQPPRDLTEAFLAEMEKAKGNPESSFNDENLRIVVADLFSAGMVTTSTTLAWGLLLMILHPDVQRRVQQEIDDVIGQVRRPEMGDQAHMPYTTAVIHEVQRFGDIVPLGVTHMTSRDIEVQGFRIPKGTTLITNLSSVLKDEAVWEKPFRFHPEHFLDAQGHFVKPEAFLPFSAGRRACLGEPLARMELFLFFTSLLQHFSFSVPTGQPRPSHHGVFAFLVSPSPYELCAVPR", "experiment": "Metabolic stability in HLMs with or without specific CYP inhibitor (quinidine)", "format": "in vitro ADME", "design": "HLMs (1 mg protein·mL^-1); tissue BioIVT; host or cells: pooled human liver microsomes", "settings": "HLMs 1 mg protein/mL, substrate 1 μM, quinidine 20 µM", "experimental": "Before starting the experiments, the HLMs were thawed gently on ice. Metabolic stability incubations were performed at 37 °C. The incubations contained 100 mM phosphate buffer saline (PBS, pH 7.4), HLMs (1 mg protein·mL^-1), dimethyl sulfoxide (DMSO, blank control) or a selective CYP inhibitor, and BPI-460372 or positive control substrates (final incubation concentration, 1 μM). The incubation process started with the addition of NADPH (1 mM final concentration) after a 5-minute preincubation period. The chemical inhibitors were as follows: a-naphthoflavone (2 µM) for CYP1A2, ticlopidine (20 µM) for 2B6, quercetin (20 µM) for CYP2C8, sulfaphenazole (20 µM) for CYP2C9, ticlopidine (200 µM) for CYP2C19, quinidine (20 µM) for CYP2D6, and ketoconazole (20 µM) for CYP3A [9]. Aliquots were maintained in acetonitrile containing internal standard (IS) at various time points, such as 0 min, 5 min, 10 min, 20 min, 30 min, and 60 min. All incubations were performed in triplicate, and the concentration in the supernatant was determined by liquid chromatography-tandem mass spectrometry (LC-MS/MS).\nThe elimination rate constant k (min^-1) was obtained by linear regression from the natural logarithm of the […] of the parent drug and the incubation time. The inhibition rate was calculated using equation 1 [10]: […]"}, "in vitro": {"experiment": "in vitro", "settings": "hepatocytes", "experimental": "(§1) After mixing, 20 μL of cell suspension was serially transferred into 200 μL of cold acetonitrile containing IS at the time points of 0, 5, 15, 30, 60, and 120 min, respectively.\n(§2) The metabolic stability was assessed by measuring the depletion of substrate. The half-life (t1/2), intrinsic clearance (CLint, in virto, µL·min^-1·million cells^-1), whole liver intrinsic clearance (CLint, in vivo, mL·min-1·kg^-1), and in vivo hepatic clearance (CLH, mL·min-1·kg^-1) were calculated following a reported method. In the calculation of CLH, the fraction drug unbound (Fub) was set as 1. The hepatic blood flow, liver weight, and hepatocellularity of five species were used for the calculation of CLint, in vivo [13, 14]. The hepatic extraction ratio (Eh) means the ratio of CLH to hepatic blood flow."}, "rat hepatocytes": {"system": "rat hepatocytes", "experiment": "in vitro", "experimental": "as §1, §2"}, "human hepatocytes": {"system": "human hepatocytes", "experiment": "in vitro", "experimental": "as §1, §2"}, "monkey hepatocytes": {"system": "monkey hepatocytes", "experiment": "in vitro", "experimental": "as §1, §2"}, "dog hepatocytes": {"system": "dog hepatocytes", "experiment": "in vitro", "experimental": "as §1, §2"}, "mouse hepatocytes": {"system": "mouse hepatocytes", "experiment": "in vitro", "experimental": "as §1, §2"}, "Stability in plasma": {"experiment": "Stability in plasma", "format": "in vitro ADME", "settings": "human plasma, 37°C, 4 h"}, "recombinant human CYP3A4": {"target": "T1, recombinant human CYP3A4 (Homo sapiens, UniProt P08684)", "T1 construct": "purchased Cypex Ltd. (Dundee, UK)", "T1 sequence (P08684 whole entry, canonical isoform)": "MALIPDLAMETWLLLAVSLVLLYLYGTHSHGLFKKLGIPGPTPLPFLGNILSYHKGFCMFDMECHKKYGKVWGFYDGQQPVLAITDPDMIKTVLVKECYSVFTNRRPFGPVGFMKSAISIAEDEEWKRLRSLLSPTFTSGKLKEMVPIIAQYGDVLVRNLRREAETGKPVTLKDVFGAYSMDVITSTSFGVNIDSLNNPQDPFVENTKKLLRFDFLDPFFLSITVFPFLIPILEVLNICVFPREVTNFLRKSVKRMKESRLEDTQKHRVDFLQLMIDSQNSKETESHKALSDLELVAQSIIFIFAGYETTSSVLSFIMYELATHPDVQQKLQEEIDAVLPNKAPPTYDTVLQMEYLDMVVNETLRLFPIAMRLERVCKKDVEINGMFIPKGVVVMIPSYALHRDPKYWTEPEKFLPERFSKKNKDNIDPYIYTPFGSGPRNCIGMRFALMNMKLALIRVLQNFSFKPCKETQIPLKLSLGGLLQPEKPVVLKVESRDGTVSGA", "experiment": "Metabolic stability in recombinant human CYP isoenzymes", "format": "in vitro ADME", "settings": "rCYP3A4 100 pmol P450/mL, 1 µM", "experimental": "(§3) To identify the specific isoform that participates in the metabolism of BPI-460372, 1 µM BPI-460372 or positive control substrates were mixed with recombinant human CYP1A2, 2B6, 2C8, 2C9, 2C19, 2D6 or 3A4 (100 pmol P450·mL^-1), and the reaction was started by the addition of NADPH (1 mM final concentration) after 5-minute preincubation at 37°C. Aliquots were maintained in acetonitrile containing IS at different time points at 0 min, 5 min, 10 min, 20 min, 30 min, and 60 min. All incubations were performed in triplicate, and the concentration of the supernatant was determined by LC-MS/MS.\n(§4) A substrate depletion approach was employed to determine the intrinsic clearance (CLint (rCYPj)) for each isoform. The contribution of each isoform was estimated using equations 2 and 3. CYPj abundance was evaluated as the abundance (CYPj) of each isoform in HLMs (pmol/mg protein)."}, "recombinant human CYP2C8": {"target": "T2, recombinant human CYP2C8 (Homo sapiens, UniProt P10632)", "T2 construct": "purchased Cypex Ltd. (Dundee, UK)", "T2 sequence (P10632 1-490)": "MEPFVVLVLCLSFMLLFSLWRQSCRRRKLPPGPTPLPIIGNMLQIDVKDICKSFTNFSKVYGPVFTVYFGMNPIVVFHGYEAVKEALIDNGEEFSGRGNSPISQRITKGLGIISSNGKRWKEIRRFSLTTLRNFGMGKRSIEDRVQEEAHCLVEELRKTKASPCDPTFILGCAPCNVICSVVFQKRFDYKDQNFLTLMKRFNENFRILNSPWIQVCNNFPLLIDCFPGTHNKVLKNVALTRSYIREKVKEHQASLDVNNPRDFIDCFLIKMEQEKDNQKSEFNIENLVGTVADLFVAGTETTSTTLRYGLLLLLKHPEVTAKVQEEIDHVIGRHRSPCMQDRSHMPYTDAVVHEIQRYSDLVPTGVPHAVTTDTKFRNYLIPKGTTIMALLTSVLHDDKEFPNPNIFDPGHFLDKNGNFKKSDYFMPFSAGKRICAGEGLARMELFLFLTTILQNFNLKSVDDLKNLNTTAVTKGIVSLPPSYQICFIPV", "experiment": "Metabolic stability in recombinant human CYP isoenzymes", "format": "in vitro ADME", "settings": "rCYP2C8 100 pmol P450/mL, 1 µM", "experimental": "as §3, §4"}}, "data": [{"smiles": "C=C(F)C(=O)N1CC(n2c(=O)n(-c3ccc(C(F)(F)F)cc3)c3nccnc32)C1", "note": "[BPI-460372]", "values": [{"measurement": "Inhibition Rate", "setting": "CYP2D6", "value": 17.0, "unit": "%"}, {"measurement": "half-life at 1 µM", "setting": "in vitro; ICR, mouse", "value": 134, "unit": "min"}, {"measurement": "half-life at 1 µM", "setting": "in vitro; SD, rat", "value": 236, "unit": "min"}, {"measurement": "half-life at 1 µM", "setting": "in vitro; beagle, dog", "value": 192, "unit": "min"}, {"measurement": "half-life at 1 µM", "setting": "in vitro; human", "value": 929, "unit": "min"}, {"measurement": "half-life at 1 µM", "setting": "in vitro; monkey", "value": 167, "unit": "min"}, {"measurement": "CLH", "setting": "rat hepatocytes; SD, rat, 1 µM", "value": 11.0, "unit": "mL/min/kg"}, {"measurement": "Eh", "setting": "rat hepatocytes; SD, rat, 1 µM", "value": 0.200}, {"measurement": "Remaining percentage after 120 min incubation", "setting": "rat hepatocytes; SD, rat, hepatocytes, 2 h, 1 µM", "value": 72.4, "unit": "%"}, {"measurement": "CLint, in vivo", "setting": "rat hepatocytes; hepatocytes", "value": 13.8, "unit": "mL/min/kg"}, {"measurement": "CLint, in virto", "setting": "rat hepatocytes; rat, hepatocytes", "value": "2.941 µL·min^-1·Million cells^-1"}, {"measurement": "Clearance class from Eh", "setting": "rat hepatocytes; rat, hepatocytes", "value": "low clearance"}, {"measurement": "CLint, in vivo", "setting": "human hepatocytes; hepatocytes", "value": 2.7, "unit": "mL/min/kg"}, {"measurement": "CLH", "setting": "human hepatocytes; human, 1 µM", "value": 2.4, "unit": "mL/min/kg"}, {"measurement": "Eh", "setting": "human hepatocytes; human, 1 µM", "value": 0.115}, {"measurement": "CLint, in virto", "setting": "human hepatocytes; human, hepatocytes", "value": "0.746 µL·min^-1·Million cells^-1"}, {"measurement": "Clearance class from Eh", "setting": "human hepatocytes; human, hepatocytes", "value": "low clearance"}, {"measurement": "Remaining percentage after 120 min incubation", "setting": "human hepatocytes; human, hepatocytes, 2 h, 1 µM", "value": 97.3, "unit": "%"}, {"measurement": "CLH", "setting": "monkey hepatocytes; cynomolgus monkey, 1 µM", "value": 11.1, "unit": "mL/min/kg"}, {"measurement": "Eh", "setting": "monkey hepatocytes; cynomolgus monkey, 1 µM", "value": 0.253}, {"measurement": "CLint, in vivo", "setting": "monkey hepatocytes; hepatocytes", "value": 14.9, "unit": "mL/min/kg"}, {"measurement": "CLint, in virto", "setting": "monkey hepatocytes; monkey, hepatocytes", "value": "4.145 µL·min^-1·Million cells^-1"}, {"measurement": "Clearance class from Eh", "setting": "monkey hepatocytes; monkey, hepatocytes", "value": "low clearance"}, {"measurement": "Remaining percentage after 120 min incubation", "setting": "monkey hepatocytes; monkey, hepatocytes, 2 h, 1 µM", "value": 61.7, "unit": "%"}, {"measurement": "CLH", "setting": "dog hepatocytes; beagle, dog, 1 µM", "value": 13.8, "unit": "mL/min/kg"}, {"measurement": "Eh", "setting": "dog hepatocytes; beagle, dog, 1 µM", "value": 0.446}, {"measurement": "Remaining percentage after 120 min incubation", "setting": "dog hepatocytes; beagle, dog, hepatocytes, 2 h, 1 µM", "value": 66.6, "unit": "%"}, {"measurement": "CLint, in virto", "setting": "dog hepatocytes; dog, hepatocytes", "value": "3.619 µL·min^-1·Million cells^-1"}, {"measurement": "Clearance class from Eh", "setting": "dog hepatocytes; dog, hepatocytes", "value": "moderate clearance"}, {"measurement": "CLint, in vivo", "setting": "dog hepatocytes; hepatocytes", "value": 24.9, "unit": "mL/min/kg"}, {"measurement": "CLH", "setting": "mouse hepatocytes; ICR, mouse, 1 µM", "value": 36.6, "unit": "mL/min/kg"}, {"measurement": "Eh", "setting": "mouse hepatocytes; ICR, mouse, 1 µM", "value": 0.406}, {"measurement": "Remaining percentage after 120 min incubation", "setting": "mouse hepatocytes; ICR, mouse, hepatocytes, 2 h, 1 µM", "value": 54.7, "unit": "%"}, {"measurement": "CLint, in vivo", "setting": "mouse hepatocytes; hepatocytes", "value": 61.6, "unit": "mL/min/kg"}, {"measurement": "CLint, in virto", "setting": "mouse hepatocytes; mouse, hepatocytes", "value": "5.187 µL·min^-1·Million cells^-1"}, {"measurement": "Clearance class from Eh", "setting": "mouse hepatocytes; mouse, hepatocytes", "value": "moderate clearance"}, {"measurement": "Stability in plasma", "setting": "Stability in plasma", "value": "stable"}, {"measurement": "Contribution", "setting": "recombinant human CYP3A4", "value": 28.3, "unit": "%"}, {"measurement": "Contribution", "setting": "recombinant human CYP2C8", "value": 8.8, "unit": "%"}]}]}
